Converted amounts (≈) assume the structure as drawn.
What was measured:
Streptococcus faecalis = assay: MIC, serial agar dilution (nutrient agar); type: cell-based; settings: Streptococcus faecalis A9612
From the text: (§1) Nutrient agar (Eiken) was used for bacteria and Sabouraud dextrose agar (Difco) for fungi. The inoculum size was adjusted to 10^4 CFU/ml for bacteria and 10^5 -10^7 CFU/ml for fungi.

Staphylococcus aureus = assay: MIC, serial agar dilution (nutrient agar); type: cell-based
From the text: as §1

Micrococcus luteus = assay: MIC, serial agar dilution (nutrient agar); type: cell-based; settings: Micrococcus luteus PCI-1001
From the text: as §1

[1] = tested on: Staphylococcus epidermidis; assay: MIC, serial agar dilution (nutrient agar); type: cell-based
From the text: as §1

Pseudomonas aeruginosa = assay: MIC, serial agar dilution (nutrient agar); type: cell-based; settings: Pseudomonas aeruginosa A9930
From the text: as §1

Serratia marcescens = assay: MIC, serial agar dilution (nutrient agar); type: cell-based; settings: Serratia marcescens A20222
From the text: as §1

Proteus vulgaris = assay: MIC, serial agar dilution (nutrient agar); type: cell-based; settings: Proteus vulgaris A9436
From the text: as §1

Enterobacter cloacae = assay: MIC, serial agar dilution (nutrient agar); type: cell-based; settings: Enterobacter cloacae A9659
From the text: as §1

Proteus mirabilis = assay: MIC, serial agar dilution (nutrient agar); type: cell-based; settings: Proteus mirabilis A9554
From the text: as §1

Klebsiella pneumoniae = assay: MIC, serial agar dilution (nutrient agar); type: cell-based; settings: Klebsiella pneumoniae D-11
From the text: as §1

Morganella morganii = assay: MIC, serial agar dilution (nutrient agar); type: cell-based; settings: Morganella morganii A9553
From the text: as §1

Bacillus subtilis = assay: MIC, serial agar dilution (nutrient agar); type: cell-based; settings: Bacillus subtilis PCI-219
From the text: as §1

Escherichia coli = assay: MIC, serial agar dilution (nutrient agar); type: cell-based; settings: Escherichia coli NIHJ
From the text: as §1

[2] = tested on: Lymphocytic leukemia P388; assay: Antitumor activity against P388 leukemia in mice; type: in vivo, CDF1 and BDF1 mice; settings: for T/C % of MST: P388 leukemia; for antitumor activity against P388 leukemia (in words): ip
Protocol: (§2) Lymphocytic leukemia P388 (CDF1 and BDF1 mice) and lymphoid leukemia L1210 (BDF1 mice) were inoculated by intraperitoneal injection of 0.8 ml diluted ascitic fluid containing 10^6 and 10^5 cells per mouse, respectively. Melanotic melanoma B16 (BDF1 mice) were implanted 0.5 ml of a 10% tumor brei intraperitoneally. Test materials were dissolved in 0.9% saline containing 10% dimethyl sulfoxide and graded doses of them were administered to mice intraperitoneally 24 hours after tumor implantation. Either olivomycin (NSC 38270) or mitomycin C was comparatively tested as a reference compound in the experiments.
Values for percentage ratios of 125 and above indicate significant antitumor effect.

[3] = Acute toxicity, single intraperitoneal administration; settings: male ddY mice
Piricularia oryzae = type: cell-based; settings: Piricularia oryzae D 91; Sabouraud dextrose agar
[4] = tested on: pathogenic fungi such as Candida albicans, Cryptococcus neoformans, Aspergillus fumigatus, Trichlophyton mentagrophytes and Mucor spinosus; assay: In vitro antifungal activity; type: cell-based; settings: clinically important pathogenic fungi
From the text: as §1

Solubility in solvents = type: physicochemical
[5] = tested on: gram-positive and gram-negative bacteria; assay: In vitro antibacterial activity; type: cell-based; settings: at 50 mcg/ml
From the text: as §1

Petriellidium boydii = assay: MIC, serial agar dilution (Sabouraud dextrose agar); type: cell-based; settings: Petriellidium boydii IFO 8073
From the text: as §1

Blastomyces dermaditis = assay: as above; type: cell-based; settings: Blastomyces dermaditis IFO 8144
From the text: as §1

[6] = tested on: Trichophyton mentagrophytes; assay: as above; type: cell-based
From the text: as §1

Mucor spinosus = assay: as above; type: cell-based; settings: Mucor spinosus IFO 5317
From the text: as §1

Aspergillus fumigatus = assay: as above; type: cell-based
From the text: as §1

Cryptococcus neoformans = assay: as above; type: cell-based
From the text: as §1

Sporothrix schenckii = assay: as above; type: cell-based; settings: Sporothrix schenckii IFO 8158
From the text: as §1

Aspergillus flavus = assay: as above; type: cell-based; settings: Aspergillus flavus FA 21436
From the text: as §1

Fusarium moniliforme = assay: as above; type: cell-based; settings: Fusarium moniliforme A 2284
From the text: as §1

Candida albicans = assay: as above; type: cell-based
From the text: as §1

Melanotic melanoma B16 = assay: Antitumor activity against B16 melanoma in mice; type: in vivo, BDF1 mice; settings: B16 melanoma, BDF1 mice
Protocol: as §2

lymphoid leukemia L1210 = assay: Antitumor activity against L1210 leukemia in mice; type: in vivo, BDF1 mice; settings: L1210 leukemia, BDF1 mice
Protocol: as §2

[7] = 0.031 mg/kg/day ip, schedule 2 (once daily on days 1 through 9)
[8] = 0.063 mg/kg/day ip, schedule 2 (once daily on days 1 through 9)
[9] = 0.13 mg/kg/day ip, schedule 2 (once daily on days 1 through 9)
[10] = 0.25 mg/kg/day ip, schedule 2 (once daily on days 1 through 9)
[11] = 0.5 mg/kg/day ip, schedule 2 (once daily on days 1 through 9)
[12] = 1 mg/kg/day ip, schedule 2 (once daily on days 1 through 9)

## CCCCCCCCCC=CC=CC(=O)NC(C(=O)NC1CC(O)CCNC(=O)C=CC(C)NC1=O)C(C)O (stereo not shown) [BU-2867T C]
Streptococcus faecalis
  MIC: > 50 µg/mL
Staphylococcus aureus; Staphyloccus aureus Bx-1633
  MIC: > 50 µg/mL
Staphylococcus aureus; Staphylococcus aureus 209P
  MIC: > 50 µg/mL
Staphylococcus aureus; Staphylococcus aureus Smith
  MIC: > 50 µg/mL
Micrococcus luteus
  MIC: > 50 µg/mL
[1]; Staphylococcus epidermidis A22152
  MIC: > 50 µg/mL
[1]; Staphylococcus epidermidis D153
  MIC: > 50 µg/mL
Pseudomonas aeruginosa
  MIC: > 50 µg/mL
Serratia marcescens
  MIC: > 50 µg/mL
Proteus vulgaris
  MIC: > 50 µg/mL
Enterobacter cloacae
  MIC: > 50 µg/mL
Proteus mirabilis
  MIC: > 50 µg/mL
Klebsiella pneumoniae
  MIC: > 50 µg/mL
Morganella morganii
  MIC: > 50 µg/mL
Bacillus subtilis
  MIC: > 50 µg/mL
Escherichia coli
  MIC: > 50 µg/mL
[2]; [7]
  T/C % of MST: 100%
[2]; [8]
  T/C % of MST: 123%
[2]; [9]
  T/C % of MST: 153%
[2]; [10]
  T/C % of MST: 159%
[2]; 0.3 mg/kg/day ip, schedule 1 (once daily on days 1, 4 and 7)
  T/C % of MST: 130%
[2]; [11]
  T/C % of MST: 175%
[2]; [12]
  T/C % of MST: 189%
[2]; 2 mg/kg/day ip, schedule 2 (once daily on days 1 through 9)
  T/C % of MST: 234%
[2]; 3 mg/kg/day ip, schedule 1 (once daily on days 1, 4 and 7)
  T/C % of MST: 155%
[2]; treatment schedule 1 (once daily on days 1, 4 and 7)
  antitumor activity against P388 leukemia (in words): showed antitumor activity
[2]; treatment schedule 2 (once daily on days 1 through 9)
  antitumor activity against P388 leukemia (in words): highly active
[3]
  LD50: 25 mg/kg
Piricularia oryzae
  MIC: > 50 µg/mL
[4]
  antifungal activity (in words): potent antifungal activity
Solubility in solvents
  solubility in chloroform, acetonitrile and ethyl acetate: slightly soluble
  solubility in methanol, ethanol, n-butanol and dimethyl sulfoxide: readily soluble
  solubility in n-hexane and water: practically insoluble
[5]
  growth inhibition of gram-positive and gram-negative bacteria (in words): did not inhibit the growth
Petriellidium boydii
  MIC: 50 µg/mL (≈ 91.1 µM)
Blastomyces dermaditis
  MIC: > 50 µg/mL
[6]; Trichophyton mentagrophytes #4329
  MIC: 6.3 µg/mL (≈ 11.5 µM)
[6]; Trichophyton mentagrophytes D 155
  MIC: 1.6 µg/mL (≈ 2.92 µM)
Mucor spinosus
  MIC: 0.2 µg/mL (≈ 0.364 µM)
Aspergillus fumigatus; Aspergillus fumigatus IAM 2034
  MIC: 0.8 µg/mL (≈ 1.46 µM)
Aspergillus fumigatus; Aspergillus fumigatus IAM 2530
  MIC: 0.8 µg/mL (≈ 1.46 µM)
Cryptococcus neoformans; Cryptococcus neoformans D 49
  MIC: 3.1 µg/mL (≈ 5.65 µM)
Cryptococcus neoformans; Cryptococcus neoformans IAM 4514
  MIC: 3.1 µg/mL (≈ 5.65 µM)
Sporothrix schenckii
  MIC: > 50 µg/mL
Aspergillus flavus
  MIC: 50 µg/mL (≈ 91.1 µM)
Fusarium moniliforme
  MIC: > 50 µg/mL
Candida albicans; Candida albicans A 9540
  MIC: 0.8 µg/mL (≈ 1.46 µM)
Candida albicans; Candida albicans IAM 4888
  MIC: 1.6 µg/mL (≈ 2.92 µM)

## CO[C@@]12[C@H](COC(N)=O)C3=C(C(=O)C(C)=C(N)C3=O)N1C[C@@H]1N[C@@H]12 [Mitomycin C, reference compound]
[2]; [7]
  T/C % of MST: 115%
[2]; [8]
  T/C % of MST: 130%
[2]; [9]
  T/C % of MST: 150%
[2]; [10]
  T/C % of MST: 170%
[2]; [11]
  T/C % of MST: 240%
[2]; [12]
  T/C % of MST: 290%
Melanotic melanoma B16; 0.13 mg/kg/day ip
  T/C % of MST: 131%
Melanotic melanoma B16; 0.25 mg/kg/day ip
  T/C % of MST: 141%
Melanotic melanoma B16; 0.5 mg/kg/day ip
  T/C % of MST: 163%
Melanotic melanoma B16; 1 mg/kg/day ip
  T/C % of MST: 181%
Melanotic melanoma B16; 2 mg/kg/day ip
  T/C % of MST: 63%
Lymphoid leukemia L1210; 0.063 mg/kg/day ip
  T/C % of MST: 106%
Lymphoid leukemia L1210; 0.13 mg/kg/day ip
  T/C % of MST: 129%
Lymphoid leukemia L1210; 0.25 mg/kg/day ip
  T/C % of MST: 129%
Lymphoid leukemia L1210; 0.5 mg/kg/day ip
  T/C % of MST: 141%
Lymphoid leukemia L1210; 1 mg/kg/day ip
  T/C % of MST: 140%

Source: patent US4898940A (priority 1989, dated 1990)
